# According to ChEMBL document CHEMBL3045812, “Synthesis of fatty acid Schiff base esters as potential antimicrobial and chemotherapeutic agents” (Med Chem Res, 2013):
# Calls of active or inactive are those of the source. No cut-off for these calls is given here.
# Columns and labels:
# [1] = system: Raoultella planticola; assay: Antibacterial activity against Raoultella planticola MTCC 530 at 1.4 to 300 ug/ml after 24 hr by microtiter broth dilution method; type: functional, organism-based
# [2] = system: Escherichia coli; assay: Antibacterial activity against Escherichia coli MTCC 739 at 1.4 to 300 ug/ml after 24 hr by microtiter broth dilution method; type: functional, organism-based
# [3] = system: Micrococcus luteus; assay: Antibacterial activity against Micrococcus luteus MTCC 2470 at 1.4 to 300 ug/ml after 24 hr by microtiter broth dilution method; type: functional, organism-based
# [4] = system: Pseudomonas aeruginosa; assay: Antibacterial activity against Pseudomonas aeruginosa MTCC 2453 after 24 hr by microtiter broth dilution method; type: functional
# [5] = system: Staphylococcus aureus; assay: Antibacterial activity against Staphylococcus aureus MLS16 MTCC 2940 after 24 hr by microtiter broth dilution method; type: functional; conditions: MLS16 MTCC 2940, 24 h
# [6] = system: Bacillus subtilis; assay: Antibacterial activity against Bacillus subtilis MTCC 121 after 24 hr by microtiter broth dilution method; type: functional
# [7] = system: Staphylococcus aureus; assay: Antibacterial activity against Staphylococcus aureus MTCC 96 after 24 hr by microtiter broth dilution method; type: functional; conditions: MTCC 96, 24 h
# [8] = system: N2a; assay: Cytotoxicity against Mus musculus (mouse) Neuro2a cells by tetrazolium-reduction assay; type: functional, cell-based
# [9] = system: HeLa; assay: Cytotoxicity against Homo sapiens (human) HeLa cells by tetrazolium-reduction assay; type: functional, cell-based
# [10] = system: HepG2; assay: Cytotoxicity against Homo sapiens (human) HepG2 cells by tetrazolium-reduction assay; type: functional, cell-based
# [11] = system: A549; assay: Cytotoxicity against Homo sapiens (human) A549 cells by tetrazolium-reduction assay; type: functional, cell-based
# [12] = system: Candida albicans; assay: Antifungal activity against Candida albicans MTCC 227 at 1.4 to 300 ug/ml after 24 hr by microtiter broth dilution method; type: functional, organism-based
# [13] = system: Candida albicans; assay: Antifungal activity against Candida albicans MTCC 854 at 1.4 to 300 ug/ml after 24 hr by microtiter broth dilution method; type: functional, organism-based
# [14] = system: MDA-MB-231; assay: Cytotoxicity against Homo sapiens (human) MDA-MB-231 cells by tetrazolium-reduction assay; type: functional, cell-based
# [15] = system: MCF7; assay: Cytotoxicity against Homo sapiens (human) MCF7 cells by tetrazolium-reduction assay; type: functional, cell-based
# [16] = system: [Candida] aaseri; assay: Antifungal activity against Candida aaseri MTCC 1962 at 1.4 to 300 ug/ml after 24 hr by microtiter broth dilution method; type: functional, organism-based
# [17] = system: Candida parapsilosis; assay: Antifungal activity against Candida parapsilosis MTCC 1744 at 1.4 to 300 ug/ml after 24 hr by microtiter broth dilution method; type: functional, organism-based
# [18] = system: Nakaseomyces glabratus; assay: Antifungal activity against Candida glabrata MTCC 3019 at 1.4 to 300 ug/ml after 24 hr by microtiter broth dilution method; type: functional, organism-based
# [19] = system: Candida albicans; assay: Antifungal activity against Candida albicans MTCC 3017 at 1.4 to 300 ug/ml after 24 hr by microtiter broth dilution method; type: functional, organism-based
# [20] = system: Candida albicans; assay: Antifungal activity against Candida albicans MTCC 3018 at 1.4 to 300 ug/ml after 24 hr by microtiter broth dilution method; type: functional, organism-based
# [21] = system: Candida albicans; assay: Antifungal activity against Candida albicans MTCC 3958 at 1.4 to 300 ug/ml after 24 hr by microtiter broth dilution method; type: functional, organism-based
# [22] = system: Candida albicans; assay: Antifungal activity against Candida albicans MTCC 1637 at 1.4 to 300 ug/ml after 24 hr by microtiter broth dilution method; type: functional, organism-based
# [23] = system: Candida albicans; assay: Antifungal activity against Candida albicans MTCC 183 at 1.4 to 300 ug/ml after 24 hr by microtiter broth dilution method; type: functional, organism-based
# [24] = system: Candida albicans; assay: Antifungal activity against Candida albicans MTCC 7315 at 1.4 to 300 ug/ml after 24 hr by microtiter broth dilution method; type: functional, organism-based
# [25] = system: Candida albicans; assay: Antifungal activity against Candida albicans MTCC 7315 after 24 hr by microtiter broth dilution method; type: functional; conditions: MTCC 7315, 24 h
# [26] = system: Candida albicans; assay: Antifungal activity against Candida albicans MTCC 227 after 24 hr by microtiter broth dilution method; type: functional; conditions: MTCC 227, 24 h
# [27] = system: Candida albicans; assay: Antifungal activity against Candida albicans MTCC 854 after 24 hr by microtiter broth dilution method; type: functional
# [28] = system: Pichia sporocuriosa; assay: Antifungal activity against Issatchenkia hanoiensis MTCC 4755 after 24 hr by microtiter broth dilution method; type: functional
# [29] = system: [Candida] aaseri; assay: Antifungal activity against Candida aaseri MTCC 1962 after 24 hr by microtiter broth dilution method; type: functional
# [30] = system: Pichia kudriavzevii; assay: Antifungal activity against Pichia kudriavzevii MTCC 3020 after 24 hr by microtiter broth dilution method; type: functional
# [31] = system: Nakaseomyces glabratus; assay: Antifungal activity against Candida glabrata MTCC 3019 after 24 hr by microtiter broth dilution method; type: functional
# [32] = system: Candida parapsilosis; assay: Antifungal activity against Candida parapsilosis MTCC 1744 after 24 hr by microtiter broth dilution method; type: functional
# [33] = system: Candida albicans; assay: Antifungal activity against Candida albicans MTCC 3018 after 24 hr by microtiter broth dilution method; type: functional; conditions: MTCC 3018, 24 h
# [34] = system: Candida albicans; assay: Antifungal activity against Candida albicans MTCC 3017 after 24 hr by microtiter broth dilution method; type: functional
# [35] = system: Candida albicans; assay: Antifungal activity against Candida albicans MTCC 3958 after 24 hr by microtiter broth dilution method; type: functional; conditions: MTCC 3958, 24 h
# [36] = system: Candida albicans; assay: Antifungal activity against Candida albicans MTCC 1637 after 24 hr by microtiter broth dilution method; type: functional
# [37] = system: Candida albicans; assay: Antifungal activity against Candida albicans MTCC 183 after 24 hr by microtiter broth dilution method; type: functional; conditions: MTCC 183, 24 h
# [38] = Homo sapiens, MCF7, read-out: IC50
SMILES,Activity [1],Activity [2],Activity [3],"MIC ([4]; MTCC 2453, 24 h)",MIC [5],MIC [6],MIC [7],Activity [8],Activity [9],Activity [10],Activity [11],Activity [12],Activity [13],IC50 [14],IC50 ([15]; mcf7),Activity [16],Activity [17],Activity [18],Activity [19],Activity [20],other results
CCCCCCCCCCCCCCCCCC(=O)Oc1ccc(/C=N/Cc2cccnc2)cc1,inactive,inactive,inactive,300 µg/mL,300 µg/mL,inactive,300 µg/mL,inactive,inactive,inactive,inactive,inactive,inactive,11.5 µM,Not Active,inactive,inactive,inactive,inactive,inactive,Activity [21]: inactive; Activity [22]: inactive; Activity [23]: inactive; Activity [24]: inactive
CCCCCCCCCCCCCC(=O)Oc1ccc(/C=N/Cc2cccnc2)cc1,inactive,inactive,inactive,,75 µg/mL,inactive,75 µg/mL,inactive,inactive,inactive,inactive,,,26.6 µM,Not Active,,,,,,"MIC [25]: 300 µg/mL; MIC [26]: 300 µg/mL; MIC ([27]; MTCC 854, 24 h): 300 µg/mL; MIC [4]: inactive; MIC [28]: inactive; MIC [29]: inactive; MIC [30]: inactive; MIC [31]: inactive; MIC [32]: inactive; MIC [33]: 300 µg/mL; MIC ([34]; MTCC 3017, 24 h): 300 µg/mL; MIC [35]: 300 µg/mL; MIC ([36]; MTCC 1637, 24 h): 300 µg/mL; MIC [37]: 300 µg/mL"
COc1cccc2c1C(=O)c1c(O)c3c(c(O)c1C2=O)C[C@@](O)(C(=O)CO)C[C@@H]3O[C@H]1C[C@H](N)[C@H](O)[C@H](C)O1 [DOXORUBICIN],,,,,,,,,,,,,,< 1 µM,,,,,,,
CCCCCCCC(=O)Oc1ccc(/C=N/Cc2cccnc2)cc1,inactive,inactive,inactive,300 µg/mL,300 µg/mL,,37.5 µg/mL,inactive,inactive,inactive,inactive,,,15.8 µM,,,,,,,"MIC [25]: 150 µg/mL; MIC [26]: 150 µg/mL; MIC [27]: inactive; MIC ([6]; MTCC 121, 24 h): 300 µg/mL; MIC ([28]; MTCC 4755, 24 h): 300 µg/mL; MIC ([29]; Yamadazyma aaseri, MTCC 1962, 24 h): 300 µg/mL; MIC ([30]; MTCC 3020, 24 h): 150 µg/mL; MIC ([31]; MTCC 3019, 24 h): 150 µg/mL; MIC [32]: inactive; MIC [33]: 300 µg/mL; MIC [34]: inactive; MIC [35]: 150 µg/mL; MIC [36]: inactive; MIC [37]: 150 µg/mL; IC50 [15, 38]: 12 µM"
CCCCCCCCCCCC(=O)Oc1ccc(/C=N/Cc2cccnc2)cc1,inactive,inactive,inactive,,150 µg/mL,inactive,150 µg/mL,inactive,inactive,inactive,inactive,inactive,inactive,18.9 µM,,inactive,inactive,inactive,inactive,inactive,"MIC [4]: inactive; IC50 [15, 38]: 17.6 µM; Activity [21]: inactive; Activity [22]: inactive; Activity [23]: inactive; Activity [24]: inactive"
